Results published in patent publication US6410328B1, “Sensitizing cells to compounds using lipid-mediated gene and compound delivery” (Protiva Biotherapeutics Inc., priority 1998, dated 2002).

Tests used:
[1] = test system: B16 murine melanoma cells stably transfected with HSV-TK; assay: Efficacy of liposomal ganciclovir in the B16TK tumor model (Example 11); format: in vivo, mouse; details: day 18; 25 mg/kg ganciclovir every other day from day five, six injections
Description: FIG. 13 illustrates efficacy of liposomal ganciclovir in the B16TK tumor model. Female C57BL/6 mice were seeded subcutaneously in the hind flank with 150,000 B16 murine melanoma cells stably transfected with HSV-TK. Five days later, tumor measurement began. Starting on day five, mice were treated with liposomal or free GCV (25 mg/kg ganciclovir) or HBS (Hepes Buffered Saline) every other day for a total of six injections. Measurements at day 18 indicate that tumors in the control mice are 5-fold larger than those of the treated groups. Tumor volume was determined by measuring tumor in three dimensions with calipers.
Groups of 4 or 5 female C57BL/6 mice were injected intradermally with B16 cells stably transfected with HSV-TK. Once tumors were measurable (day 5), the mice were injected intravenously with liposomal GCV (25 mg/kg GCV). Injections were continued every other day for 6 injections. Tumor measurements were typically taken every other day.

in vivo = details: female, C57BL/6, mouse, iv, 25 mg/kg
Description: Groups of four female C57BL/6 mice per time point were injected subcutaneously with 150,000 B16 tumor cells. The tumors were grown for 14 days at which time a single iv dose of free GCV or liposomal GCV was given via the lateral tail vein. This dose, given in a total of 200 μL, contained approximately 5.6 mg (10 μmoles) lipid and 0.5 mg (1.96 μmoles) GCV resulting in lipid and GCV doses of 300 mg/kg and 25 mg/kg, respectively. Circulating levels of lipid and GCV were determined at 15 min, 1, 8, 24 and 48 hrs for the liposomal GCV groups. Levels of GCV were determined at 15 min and 1 hr for the free GCV groups. At each time point, animals were anesthetized with ketamine/xylazine and blood was collected via cardiac puncture. Blood was put into EDTA coated microtainers and spun at 500 g for 10 min in order to pellet blood cells and obtain plasma. Lipid and GCV levels in the plasma were determined. Lipid and GCV were measured by counting ^14C-CHE and ^3H-GCV. One hundred or 200 μL aliquots of plasma were measured on a Beckman LS3801 scintillation counter. […]
Tumor bearing mice were treated intravenously with 25 mg/kg of free or liposomal GCV. Lipid and GCV were quantified using ^14C-CHE and ^3H-GCV labels. […] Free ganciclovir is rapidly cleared from the tumor, with only 1.1+/−0.1 % of the total injected dose per gram of tumor detected at 1 hr. […]

[2] = Plasma clearance and in vivo release of free and liposomal GCV in B16 tumored mice (Example 9); design: species or system mouse; details: 1 hr after single iv dose, 25 mg/kg GCV
Description: Large unilamellar vesicles were prepared according to the method of Hope, et al., Biochem. Biophys. Acta. 812:55-65 (1985). 55 mole % sphingomyelin and 45 mole % of cholesterol were dissolved in chloroform with a drop of methanol and approximately 0.035 μCi of ^14C-CHE. Lipids were dried down under a stream of nitrogen gas and the resulting lipid film was then placed under high vacuum for at least 3 hrs. A solution of ganciclovir containing ^3H-GCV was made up in 30% ethanol, 70% HBS (20 mM Hepes, 145 mM NaCl pH 7.45) to 50 or 100 mg/mL depending on the sample size. The lipid to GCV weight ratio was initially 1 to 1. The GCV solution was added to the lipid film. […] The lipid concentration was determined by scintillation counting of ^14C-CHE label. The GCV concentration was determined by counting ^3H-GCV and a Bligh Dyer assay.
Groups of four female C57BL/6 mice per time point were injected subcutaneously with 150,000 B16 tumor cells. […] Circulating levels of lipid and GCV were determined at 15 min, 1, 8, 24 and 48 hrs for the liposomal GCV groups. Levels of GCV were determined at 15 min and 1 hr for the free GCV groups. […] Lipid and GCV levels in the plasma were determined. Lipid and GCV were measured by counting ^14C-CHE and ^3H-GCV. One hundred or 200 μL aliquots of plasma were measured on a Beckman LS3801 scintillation counter.

[3] = Organ biodistribution of free and liposomal GCV in B16 tumored mice (Example 10); format: in vivo, mouse
Description: Groups of four female C57BL/6 mice per time point were injected subcutaneously with 150,000 B16 tumor cells. The tumors were grown for 14 days at which time a single iv dose of free GCV or liposomal GCV was given via the lateral tail vein. This dose, given in a total of 200 μL, contained approximately 5.6 mg (10 μmoles) lipid and 0.5 mg (1.96 μmoles) GCV resulting in lipid and GCV doses of 300 mg/kg and 25 mg/kg, respectively. Circulating levels of lipid and GCV were determined at 15 min, 1, 8, 24 and 48 hrs for the liposomal GCV groups. Levels of GCV were determined at 15 min and 1 hr for the free GCV groups. At each time point, animals were anesthetized with ketamine/xylazine and blood was collected via cardiac puncture. Blood was put into EDTA coated microtainers and spun at 500 g for 10 min in order to pellet blood cells and obtain plasma. Lipid and GCV levels in the plasma were determined. Lipid and GCV were measured by counting ^14C-CHE and ^3H-GCV. One hundred or 200 μL aliquots of plasma were measured on a Beckman LS3801 scintillation counter.
Biodistribution data was collected from those mice that were in the pharmacokinetic studies. Following heart puncture, mice were terminated by cervical dislocation. Tissues were harvested from each animal and weighed. Saline was added to each organ prior to homogenization by either a Polytron homogenizer (livers) or a Fast Prep® machine. Tissues were solubilized in Solvable for 3 to 16 hr at 50° C. The samples were then cooled to room temperature before defoaming and decolourizing with EDTA and hydrogen peroxide respectively. Picofluorscintillation fluid was added to the samples prior to counting on the scintillation counter.

Nc1nc(O)c2ncn(COC(CO)CO)c2n1 [free GCV, ganciclovir]
tumor size in control HBS-treated mice relative to treated groups [1]: 5 fold
tissue uptake at 1 h (in vivo): 1.1 %ID/g
injected dose remaining in circulation [2]: 0.4 % of the injected dose
GCV content of organs assayed (liver, lungs, spleen, kidneys) ([3]; 15 min and 1 hr, except kidneys at 15 min): essentially absent
GCV found in the kidneys ([3]; 15 minute time point): 3.5+/−1.8 % of the total injected dose
GCV found in the liver ([3]; 15 minutes after administration): 3.1+/−0.1 % of the initial injected dose
GCV in the spleen ([3]; 1 hr (peak for liposomal GCV)): 0.04+/−0.02 % of the total injected dose
